What was measured:
N. fowleri trophozoites [1] = assay: Apoptosis/necrosis fluorescence staining assay; assay type: cell-based, Naegleria fowleri; settings: at IC90, 48 h; apopxin green, 7-AAD red, cytocalcein blue
From the text: While apoptosis was previously believed to occur in multicellular metazoans, it was discovered that ancient forms of apoptotic-like cell death, which mimics some characteristics of apoptosis, can also trigger death in protozoa. In fact, apoptosis-like death is one of the programmed cell death molecular mechanisms in protozoa that also include necrosis. To further understand how compounds 2a, 3b and 3d trigger the death of N. fowleri in comparison to miltefosine, an evaluation of apoptosis and necrosis was conducted at IC90 of the tested compounds for 48 h. […] The diminished cytocalceine blue fluorescence, coupled with the surge in green fluorescence signifying apoptosis after treatment with the compounds (Figure 5), clearly indicates the reduction in viable cells and the initiation of programmed cell death. The absence of 7-AAD red fluorescence further reinforces the lack of detectable necrosis. This is a desirable trait for potential therapeutic agents, as necrosis, unlike apoptosis, can trigger inflammation due to the uncontrolled release of intracellular contents.
Figure 5 Apoptosis/necrosis assay. A fluorescence staining assay was performed using N. fowleri trophozoites treated with compounds 2a, 3b, 3d, and miltefosine (MF) as a reference; NC, negative controls with 0.1% DMSO treatment. Blue fluorescence representing living cells stained with cytocalcein (DAPI channel, Ex/Em = 405/450 nm). Green apopxin stains apoptotic cells to show green fluorescence (GFP channel, Ex/Em = 490/525 nm). 7-Amino Actinomycin D (7-AAD) stains late apoptotic cells and necrotic cells to show red fluorescence (RFP channel, Ex/Em = 550/650 nm). Images were representatives of cell populations in three individual experiments. Size bar: 10 µm.
Apoptosis/necrosis in treated N. fowleri trophozoites was assessed using the Apoptosis/Necrosis Detection Kit (Abcam, Cambridge, UK). N. fowleri trophozoites (5 × 10^4 cells/well) were seeded in a 96-well black/clear bottom plate (Thermo Fisher Scientific). Compounds 2a, 3b and 3d were treated to the cells at the concentrations of IC90 and incubated at 37 °C for 48 h. The apoptosis/necrosis assay was performed as described previously. Amoebae treated with 0.1% DMSO and miltefosine (IC90) were used as the negative controls (NC) and the positive controls, respectively.

[2] = Cytotoxicity assay for C6 cells (CellTiter-Blue); assay type: cell-based; settings: rat, C6 glial cells, viability, mean ± SD
Method: A viability assay was performed to evaluate the inhibitory activity of the tested compounds by determining their IC50 values against N. fowleri, using miltefosine as a reference drug. To assess the selectivity of the tested compounds relative to miltefosine, cytotoxic values that reduced the viability of C6 glial cells by 50% were established.
N. fowleri Carter NF69 strain (ATCC 30215; American Type Culture Collection, Manassas, VA, USA) was used. Amoeba trophozoites were cultured and maintained in Nelson’s medium containing 5% foetal bovine serum (FBS; Gibco, Grand Island, NY, USA) and 1% penicillin/streptomycin (P/S; Gibco, Grand Island, NY, USA) at 37 °C [56]. C6 rat glial cells (C6 cells; ATCC CCL-107) were cultured in Dulbecco’s Modified Eagle’s Medium (DMEM; Gibco, Grand Island, NY, USA) supplemented with 10% FBS (Gibco, Grand Island, NY, USA) and 1% P/S (Gibco, Grand Island, NY, USA) at 37 °C in a humidified incubator under 5% CO2 atmosphere.
The potential cytotoxicity of tested compounds and miltefosine in C6 cells was analysed. The cells were seeded in a 96-well microplate (Thermo Fisher Scientific; 2 × 10^4 cells/well), respectively, and incubated overnight until 80% confluent. Serially diluted tested compounds and miltefosine were treated to the cells as described above. Morphological changes of the cells were observed by microscopic examination. Cell viability was determined using the CellTiter-Blue® Cell viability assay (Promega, […], USA). The cytotoxic concentrations 50 (CC50) of tested compounds and miltefosine were calculated using GraphPad Prism 9.1.0 software (GraphPad Software, San Diego, CA, USA). The […] (SI) was determined by the ratio between CC50 and IC50. Cells treated with 0.1% DMSO, which was confirmed not to alter the morphology of the cells by microscopic examination, were used as controls with 100% cell viability.

N. fowleri trophozoites [3] = assay: JC-1 mitochondrial membrane potential assay; assay type: cell-based, Naegleria fowleri; settings: at IC90, 48 h
Method: To determine whether the apoptotic death of N. fowleri induced by compounds 2a, 3b and 3d is associated with mitochondrial dysfunction, the mitochondrial membrane potential (ΔΨm) was assessed using a JC-1 assay. The potential difference across the membrane in functioning mitochondria leads to the accumulation of cationic lipophilic fluorescent JC-1 molecules, forming red fluorescence (J-aggregate). Mitochondrial dysfunction results in the loss of mitochondrial membrane potential, leading to the transition from J-aggregates to monomers (green fluorescence). […] The absence of green and strong red fluorescence in untreated amoebae indicates healthy, functional mitochondria maintaining their ΔΨm. The shift to predominantly green fluorescence upon treatment with miltefosine, as well as compounds 2a, 3b and 3d, signifies a loss of ΔΨm, a critical early event in the intrinsic apoptotic pathway (Figure 7). Disruption of ΔΨm leads to the release of pro-apoptotic factors from the mitochondria, triggering the caspase cascade and, ultimately cell death. This observation aligns with the previous finding of DNA fragmentation and membrane compromise, further solidifying the apoptotic mechanism of these compounds.
Figure 7 Disruption of mitochondrial functions in N. fowleri. Mitochondrial membrane potential changes. Aggregate form (RFP channel, Ex/Em = 550/650 nm), implying healthy mitochondria, was found in N. fowleri trophozoites treated with 0.1% DMSO (NC), while monomer (GFP channel, Ex/Em = 490/525 nm) indicating the collapse of mitochondrial membrane potential was increased in treated amoebae. Miltefosine (MF) was included as a positive control drug. Images were representatives of the cell population in three individual experiments. Size bar: 10 µm.
The electrochemical gradient changes across the mitochondrial membrane in N. fowleri upon treatment of compounds 2a, 3b and 3d were measured using the JC-1 Mitochondrial Membrane Potential Assay Kit (Abcam, Cambridge, UK). The amoeba trophozoites (5 × 10^4 cells/well) were seeded in a 96-well black/clear bottom plate and incubated with compounds 2a, 3b or 3d (IC90) at 37 °C for 48 h. The JC-1 assay was conducted as described previously. The amoebae treated with Nelson’s medium containing 0.1% DMSO and miltefosine (IC90) were used as negative and positive controls, respectively.

## CCCCCCCCCCCCCO[C@@H]1CCC[C@H]1COP(=O)([O-])OCC[N+](C)(C)C [Compound 2a]
N. fowleri trophozoites [1]
  mode of cell death (apoptosis/necrosis staining): apoptosis-like death, rather than necrosis
[2]
  CC50: 316.6 ± 2.1 µM
N. fowleri trophozoites [3]
  mitochondrial membrane potential (ΔΨm), JC-1: loss of ΔΨm

## CCCCCCCCCCCCCOC[C@@H]1CCC[C@H]1OP(=O)([O-])OCC[N+](C)(C)C [Compound 3b]
N. fowleri trophozoites [1]
  mode of cell death (apoptosis/necrosis staining): apoptosis-like death, rather than necrosis
[2]
  CC50: 159.5 ± 0.87 µM
N. fowleri trophozoites [3]
  mitochondrial membrane potential (ΔΨm), JC-1: loss of ΔΨm

## CCCCCCCCCCCCCCCCCCCCCCOC[C@@H]1CCC[C@H]1OP(=O)([O-])OCC[N+](C)(C)C [Compound 3d]
N. fowleri trophozoites [1]
  mode of cell death (apoptosis/necrosis staining): apoptosis-like death, rather than necrosis
[2]
  CC50: 84.9 ± 1.29 µM
N. fowleri trophozoites [3]
  mitochondrial membrane potential (ΔΨm), JC-1: loss of ΔΨm

## CCCCCCCCCCCCCCCCOP(=O)([O-])OCC[N+](C)(C)C [Miltefosine]
N. fowleri trophozoites [1]
  mode of cell death (apoptosis/necrosis staining): apoptosis-like death, rather than necrosis
[2]
  CC50: 157.8 ± 1.49 µM
N. fowleri trophozoites [3]
  mitochondrial membrane potential (ΔΨm), JC-1: loss of ΔΨm

— article PMC12298883, “Discovery of Cyclopentane-Based Phospholipids as Miltefosine Analogs with Superior Potency and Enhanced Selectivity Against Naegleria fowleri” (Pharmaceuticals, 2025)
